According to patent US20060194800A1, “Pteridine derivatives as nitric oxide synthase activators” (University of Strathclyde, priority 2005, published 2006):

Each molecule was assayed on rat pulmonary artery (assay: Rat pulmonary artery ring relaxation (endogenous tetrahydrobiopterin present)). Settings: rat pulmonary artery, normal or DAHP-treated.
Description: Rings (5 mm long) of rat pulmonary artery and aorta, were supported on a pair of intraluminal wires at 1 gm tension for one hour and then contracted with their EC50 phenylephrine concentration, which for pulmonary artery was 3.6×10^−8 M (derived from preliminary experiments) and for aorta was 11.8×10^−8 M (from the previously published literature). The rings were then relaxed with carbachol (10 μM). If the relaxation to carbachol was >75%, then the tissues were used to generate dose responses by addition of tetrahydrobiopterin (BH4) or the analogues. Stock BH4 was stored at −20° C. and the dilutions were prepared using saline just before adding the drug into the bath. Solutions of analogues were stored at 4° C. Cumulatively increasing concentrations of the analogues were added to the bath and the extent of relaxation was measured when it had stabilised. Another ring from the same rat was treated in parallel with the solvent for the analogue. The solvent used was NH4OH. The results are shown graphically in FIGS. 1 and 2.

SMILES	concentrations of tetrahydrobiopterin causing contraction
C[C@H](O)[C@H](O)[C@H]1CNc2nc(N)[nH]c(=O)c2N1 [tetrahydrobiopterin, reference compound]	above 3 μM

The molecules below were run against T1, iNOS (Mus musculus, UniProt P29477) (assay: Macrophage assay (iNOS), macrophages depleted of tetrahydrobiopterin by DAHP). Settings: 72 h; tested at 1 microM in macrophages; P = promotes NOS activity; read-out: iNOS effect *H155.
T1 construct: stimulated macrophages that produce iNOS; endogenous in cells; host or cells: primary mouse macrophages (from femur), LPS-stimulated, DAHP-treated
T1 sequence (P29477 whole entry): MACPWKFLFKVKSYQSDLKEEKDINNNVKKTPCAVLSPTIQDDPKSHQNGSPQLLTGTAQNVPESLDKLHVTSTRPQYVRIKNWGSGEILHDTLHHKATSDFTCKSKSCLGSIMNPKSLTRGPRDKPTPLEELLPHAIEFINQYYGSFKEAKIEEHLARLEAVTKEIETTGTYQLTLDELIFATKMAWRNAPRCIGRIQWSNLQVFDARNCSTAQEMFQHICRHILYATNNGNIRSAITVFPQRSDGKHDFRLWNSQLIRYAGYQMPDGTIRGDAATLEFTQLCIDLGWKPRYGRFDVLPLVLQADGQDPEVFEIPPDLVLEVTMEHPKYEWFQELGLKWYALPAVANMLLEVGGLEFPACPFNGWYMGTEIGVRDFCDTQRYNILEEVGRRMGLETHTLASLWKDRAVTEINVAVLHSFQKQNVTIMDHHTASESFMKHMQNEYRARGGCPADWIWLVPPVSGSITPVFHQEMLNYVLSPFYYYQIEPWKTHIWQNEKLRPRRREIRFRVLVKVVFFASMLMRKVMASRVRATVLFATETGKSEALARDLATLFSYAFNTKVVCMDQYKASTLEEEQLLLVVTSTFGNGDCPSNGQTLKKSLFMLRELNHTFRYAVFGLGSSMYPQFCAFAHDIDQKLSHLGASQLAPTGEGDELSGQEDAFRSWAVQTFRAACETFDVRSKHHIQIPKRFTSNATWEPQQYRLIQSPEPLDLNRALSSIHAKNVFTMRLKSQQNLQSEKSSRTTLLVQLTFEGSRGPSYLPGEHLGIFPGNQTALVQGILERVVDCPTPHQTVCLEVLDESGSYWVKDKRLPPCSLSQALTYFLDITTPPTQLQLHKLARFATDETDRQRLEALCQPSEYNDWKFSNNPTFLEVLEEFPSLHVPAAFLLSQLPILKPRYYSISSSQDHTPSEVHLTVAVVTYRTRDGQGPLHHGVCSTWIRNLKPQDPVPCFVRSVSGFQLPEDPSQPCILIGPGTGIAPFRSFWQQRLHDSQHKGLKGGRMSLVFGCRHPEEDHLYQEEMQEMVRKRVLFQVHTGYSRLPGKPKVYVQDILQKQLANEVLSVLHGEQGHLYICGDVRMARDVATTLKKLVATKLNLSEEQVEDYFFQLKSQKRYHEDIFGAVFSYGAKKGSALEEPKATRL
Type: cell-based
Description: This is a cell based assay with lipopolysaccharide stimulated macrophages in which nitric oxide is produced by the action of iNOS. Primary cultures of macrophage cells isolated from mouse femur were produced over a 7 day period. At this stage the cells were seeded into 96-well culture plates at a density of 2×10^5 cells per well. After further incubation for 24 hrs, the well media was changed and the relevant treatment was introduced. The cells were then incubated for a further 72 hrs before 50 μl was removed from each well and combined with 100 μl of Greiss reagent for NO2 determination. All treatments were performed in triplicate. In each plate, 3 wells were designated control i.e. media change only-no LPS. These samples represent basal NO2 output over 72 hrs. 3 wells were used for LPS (0.5 μg/ml) stimulation alone and 3 wells were used for LPS+0.05% DMSO. This DMSO concentration was present in all subsequent analogue treated wells. All analogues were tested at 1.0 and 10 μM. In another set of experiments, the assay was repeated with the inclusion of a step to deplete endogenous tetrahydrobiopterin as in the artery ring studies. DAHP pre-treatment was employed to deplete the macrophage cells of endogenous tetrahydrobiopterin. In these experiments, DAHP (10^−2 M) was added to the cells for 24 hrs prior to seeding into 96-well plates and for 24 hrs following the seeding procedure. Thereafter, DAHP was present throughout the analogue treatment period of 72 hrs. […] Macrophages were initially depleted of tetrahydrobiopterin by incubation with DAHP.

SMILES	activation at 1 µM [%]
Nc1nc2ncc(C=O)nc2c(=O)[nH]1 [wsg1003, 2-Amino-4-oxo-3,4-dihydro-pteridine-6-carbaldehyde]	20 to 50
CC1(C)Nc2nc(N)[nH]c(=O)c2N=C1CO [wsg1004, 2-Amino-6-hydroxymethyl-7,7-dimethyl-7,8-dihydro-3H-pteridin-4-one]	20 to 50
Nc1nc2ncc(C(=O)O)nc2c(=O)[nH]1 [wsg1005, 2-Amino-4-oxo-3,4-dihydro-pteridine-6-carboxylic acid]	20 to 50
CCC1=Nc2c(nc(N)[nH]c2=O)NC1(C)C [wsg1006, 2-Amino-6-ethyl-7,7-dimethyl-7,8-dihydro-3H-pteridin-4-one]	20 to 50
CC12CCCCC1=Nc1c(nc(N)[nH]c1=O)N2 (stereo not shown) [wsg1007, 2-Amino-9a-methyl-6,7,8,9,9a,10-hexahydro-3H-benzo[g]pteridin-4-one]	20 to 50
CC12CCCC1(S(=O)(=O)O)Nc1c(nc(N)[nH]c1=O)N2 (stereo not shown) [wsg1008, 6-Amino-3a-methyl-8-oxo-1,2,3,3a,4,7,8,9-octahydro-4,5,7,9-tetraaza-cyclopenta[b]naphthalene-9a-sulfonic acid]	20 to 50
Cc1nc2nc(N)[nH]c(=O)c2nc1C [wsg1009, 2-Amino-6,7-dimethyl-3H-pteridin-4-one]	20 to 50
CC1Nc2nc(N)[nH]c(=O)c2NC1C (stereo not shown) [wsg1010, 2-Amino-6,7-dimethyl-4-oxo-3,4,5,6,7,8-hexahydro-pteridin-5-ium Cl-]	20 to 50
CC1=Nc2c(nc(N)[nH]c2=O)NC1C (stereo not shown) [wsg1011, 2-Amino-6,7-dimethyl-4-oxo-3,4,7,8-tetrahydro-pteridin-8-ium Cl-]	20 to 50
CC1(C)Nc2nc(N)[nH]c(=O)c2N=C1Cc1ccccc1 [wsg1012, 2-Amino-6-benzyl-7,7-dimethyl-7,8-dihydro-3H-pteridin-4-one]	20 to 50
CCC1(CC)Nc2nc(N)[nH]c(=O)c2N=C1CO [wsg1014, 2-Amino-7,7-diethyl-6-hydroxymethyl-7,8-dihydro-3H-pteridin-4-one]	< 20
CC1(CCc2ccccc2)Nc2nc(N)[nH]c(=O)c2N=C1C=O (stereo not shown) [wsg1016, 2-Amino-7-methyl-4-oxo-7-phenethyl-3,4,7,8-tetrahydro-pteridine-6-carbaldehyde]	< 20
CC1(C)Nc2nc(N)[nH]c(=O)c2N=C1/C=C/c1ccc(Cl)cc1 [wsg1017, 2-Amino-6-[2-(4-chloro-phenyl)-vinyl]-7,7-dimethyl-7,8-dihydro-3H-pteridin-4-one]	> 50
CC1(CCc2ccccc2)Nc2nc(N)[nH]c(=O)c2N=C1CO (stereo not shown) [wsg1018, 2-Amino-6-hydroxymethyl-7-methyl-7-phenethyl-7,8-dihydro-3H-pteridin-4-one]	20 to 50
CC1=Nc2c(nc(N)[nH]c2=O)OC1(C)C [wsg1019, 2-Amino-6,7,7-trimethyl-3,7-dihydro-pyrimido[4,5-b][1,4]oxazin-4-one]	< 20
